From US20220315578A1, “BRD9 BIFUNCTIONAL DEGRADERS AND THEIR METHODS OF USE” (NOVARTIS AG, priority 2019, published 2022)

Target: T1, BRD9-GFP (Homo sapiens, UniProt Q9H8M2)
T1 construct: CHYSEL (2A cis-acting hydrolase element) remnant after GFP; mCherry is split off as a separate protein (C); expressed in transfected cells; host or cells: HEK293A cells (Invitrogen R70507), lentiviral transduction with pLenti6-BRD9-GFP-CHYSEL-mCherry, blasticidin selection
T1 sequence (Q9H8M2 1-597): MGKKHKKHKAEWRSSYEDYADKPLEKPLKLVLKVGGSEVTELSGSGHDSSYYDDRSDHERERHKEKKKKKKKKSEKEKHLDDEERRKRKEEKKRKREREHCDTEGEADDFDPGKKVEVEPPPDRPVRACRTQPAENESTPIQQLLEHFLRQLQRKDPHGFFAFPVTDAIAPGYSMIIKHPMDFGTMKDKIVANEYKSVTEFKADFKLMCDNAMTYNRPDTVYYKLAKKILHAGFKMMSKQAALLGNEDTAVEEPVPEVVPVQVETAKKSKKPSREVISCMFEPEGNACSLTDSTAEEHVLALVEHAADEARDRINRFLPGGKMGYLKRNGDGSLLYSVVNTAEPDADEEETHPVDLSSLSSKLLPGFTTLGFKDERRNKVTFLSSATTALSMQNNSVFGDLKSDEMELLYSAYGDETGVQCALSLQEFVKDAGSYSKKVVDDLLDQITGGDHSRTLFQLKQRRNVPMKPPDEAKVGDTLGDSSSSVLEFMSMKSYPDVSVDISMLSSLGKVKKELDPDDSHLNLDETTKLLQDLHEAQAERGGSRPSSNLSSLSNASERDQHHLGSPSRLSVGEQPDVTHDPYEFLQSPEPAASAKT
Assay: BRD9-GFP protein abundance flow cytometry assay in HEK293A cells
Type: cell-based
Conditions: HEK293A-BRD9-GFP-CHYSEL-mCherry cells; for BRD9 Deg Amax %: 24 h, % protein remaining at the concentration at which maximum degradation is seen; for DC50: 24 h at 37° C., 10-point 1:3 dilution, concentration at which 50% maximal degradation was observed
Experimental: Compounds of the invention were tested in the following cellular assays. The terms in Table 1 are defined as follows: DC50 refers to the concentration at which 50% maximal degradation was observed; deg Amax is the extent of degradation and the value refers to the % protein remaining at the concentration at which maximum degradation is seen.
BRD9-GFP protein abundance flow cytometry assay in HEK293A cells: Degradation of BRD9 was measured in HEK293A cells expressing BRD9-GFP and mCherry from a stably integrated second generation bicistronic BRD9-GFP-CHYSELmCherry construct. Reduction of the GFP signal measured by flow cytometry served as readout for BRD9 degradation after degrader treatment.
The bicistronic BRD9-GFP-CHYSEL-mCherry construct is based on a pLenti6-DEST vector backbone where a GFP-CHYSEL-mCherry cassette was synthesized and inserted downstream of the DEST cassette by Gibson assembly resulting in the new gateway compatible vector pLenti6-DEST-GFP-CHYSEL-mCherry to allow Gateway cloning with pENTR221-BRD9 (w/o ATG) to obtain the final sensor construct pLenti6-BRD9-GFP-CHYSEL-mCherry.
HEK293 Å-BRD9-GFP-CHYSEL-mCherry sensor cells were generated by lentiviral vector transduction using the pLenti6-BRD9-GFP-CHYSEL-mCherry sensor construct described before. […] The mix was incubated for another 20 min at RT and then added to 1 ml of a freshly prepared suspension of HEK293FT cells in a well of a 6-well plate (concentration 1.2×10^6 cells/ml). 1 day after transfection, the medium was replaced with 1.5 ml of complete growth medium (DMEM high Glucose+10% FCS+1% L-Glutamine+1% NEAA+1% NaPyr.). 48 h post transfection supernatant containing viral transducing particles was collected and frozen at −80° C. […] Infection was performed with […] of collected supernatant containing viral transducing particles in 1 ml medium including 8 μg/ml polybrene. 24 h post infection, stably transfected cells were selected with blasticidin at a concentration of 8 μg/ml.
Stable HEK293 Å-BRD9-GFP-CHYSEL-mCherry cells were maintained in complete growth medium (DMEM high Glucose+10% FCS+1% L-Glutamine+1% NEAA+1% NaPyr.) with passaging performed twice per week. On Day 0, HEK293 Å-BRD9-GFP-CHYSEL-mCherry cells were seeded at 10,000 cells/well in a 96-well microtiter plate in […] complete medium. On Day 1, cells were treated in duplicate with 10-point 1:3 dilution series of compound using the HP D300 Digital Dispenser (Tecan). DMSO concentrations were normalized across the plate to 0.1%. On Day 2, after 24 h of incubation at 37° C., treatment media was discarded, cells rinsed with 100 ul/well PBS and then detached using 40 ul trypsin/well for 5 min. Trypsin was neutralized with 100 ul/well PBS+20% FCS). Flow cytometry was performed on the samples using the Beckman Coulter CytoFLEX flow cytometer. Cell identification was then performed using forward (FSC) vs. side scatter (SSC) plots. Single cell discrimination is performed using FSC-Width (FSC-W) vs. FSC-Height (FSC-H) plots. Median GFP/mCherry ratio values for 5,000 single cells are used to determine BRD9 levels. Median GFP/mCherry ratio values from HEK293 Å-mCherry are used as a background signal and thus defining 0% BRD9 signal. Median GFP/mCherry ratio values from DMSO treated HEK293 Å-BRD9-GFP-CHYSEL-mCherry are used to define 100% BRD9 signal for subsequent DC50 curves (concentration at 50% BRD9 degradation). Concentration response curves plotting relative reduction of the GFP/mCherry ratio signal (measured by flow cytometry) versus 10 compound concentrations (starting concentration […], 3 fold dilution steps) of the compounds allowed generation of DC50 values. Data is shown in Tables 2 and 3, in which, DC50 refers to the concentration at which 50% maximal degradation was observed; deg Amax is the extent of degradation and the value refers to the % protein remaining at the concentration at which maximum degradation is seen.

Row | Structure (SMILES) | BRD9 Deg Amax % | DC50
1 | COc1cc(-c2cn(C)c(=O)c(C)c2C)cc(OC)c1CCN1CCC(OC2CCN(C(=O)c3cccc(N4CCC(=O)NC4=O)c3)CC2)CC1 [Compound A22, 1-(3-(4-((1-(2,6-Dimethoxy-4-(1,4,5-trimethyl-6-oxo-1,6-dihydropyridin-3-yl)phenethyl)piperidin-4-yl)oxy)piperidine-1-carbonyl)phenyl)dihydropyrimidine-2,4(1H,3H)-dione] | 11.18% | 0.006 µM
2 | COc1cc(-c2cn(C)c(=O)c3cnccc23)c(OC)cc1CN1CCN(CC2CCN(C(=O)c3ccc(OC)c(N4CCC(=O)NC4=O)c3)CC2)CC1 [Compound A23, 1-(5-(4-((4-(2,5-Dimethoxy-4-(2-methyl-1-oxo-1,2-dihydro-2,7-naphthyridin-4-yl)benzyl)piperazin-1-yl)methyl)piperidine-1-carbonyl)-2-methoxyphenyl)dihydropyrimidine-2,4(1H,3H)-dione] | 10.64% | 0.016 µM
3 | COc1ccc(C(=O)N2CCC(CN3CCN(Cc4c(OC)cc(-c5cn(C)c(=O)c6cnccc56)cc4OC)CC3)CC2)cc1N1CCC(=O)NC1=O [Compound A24, 1-(5-(4-((4-(2,6-Dimethoxy-4-(2-methyl-1-oxo-1,2-dihydro-2,7-naphthyridin-4-yl)benzyl)piperazin-1-yl)methyl)piperidine-1-carbonyl)-2-methoxyphenyl)dihydropyrimidine-2,4(1H,3H)-dione] | 13.31% | 0.027 µM
4 | COc1cc(-c2cn(C)c(=O)c3cnccc23)cc(OC)c1CCN1CCC(OC2CCN(C(=O)COc3ccc(N4CCC(=O)NC4=O)cc3)CC2)CC1 [Compound A25, 1-(4-(2-(4-((1-(2,6-Dimethoxy-4-(2-methyl-1-oxo-1,2-dihydro-2,7-naphthyridin-4-yl)phenethyl)piperidin-4-yl)oxy)piperidin-1-yl)-2-oxoethoxy)phenyl)dihydropyrimidine-2,4(1H,3H)-dione] | 18.22% | 0.01 µM
5 | COc1cc(-c2cn(C)c(=O)c3cnccc23)c(OC)cc1/C=C/C(=O)N1CCC(OC2CCN(C(=O)c3ccc(OC)c(N4CCC(=O)NC4=O)c3)CC2)CC1 [Compound A27, (E)-1-(5-(4-((1-(3-(2,5-dimethoxy-4-(2-methyl-1-oxo-1,2-dihydro-2,7-naphthyridin-4-yl)phenyl)acryloyl)piperidin-4-yl)oxy)piperidine-1-carbonyl)-2-methoxyphenyl)dihydropyrimidine-2,4(1H,3H)-dione] | 12.02% | 0.049 µM
6 | COc1cc(-c2cn(C)c(=O)c3cnccc23)cc(OC)c1CCCN1CCC(OC2CCN(C(=O)c3ccc(Cl)c(N4CCC(=O)NC4=O)c3)CC2)CC1 [Compound A28, 1-(2-Chloro-5-(4-((1-(3-(2,6-dimethoxy-4-(2-methyl-1-oxo-1,2-dihydro-2,7-naphthyridin-4-yl)phenyl)propyl)piperidin-4-yl)oxy)piperidine-1-carbonyl)phenyl)dihydropyrimidine-2,4(1H,3H)-dione] | 22.70% | 0.002 µM
7 | COc1cc(-c2cn(C)c(=O)c3cnccc23)c(OC)cc1CN1CCC(OC2CCN(C(=O)c3ccc(C)c(N4CCC(=O)NC4=O)c3)CC2)CC1 [Compound A29, 1-(5-(4-((1-(2,5-Dimethoxy-4-(2-methyl-1-oxo-1,2-dihydro-2,7-naphthyridin-4-yl)benzyl)piperidin-4-yl)oxy)piperidine-1-carbonyl)-2-methylphenyl)dihydropyrimidine-2,4(1H,3H)-dione] | 15.75% | 0.034 µM
8 | COc1cc(-c2cn(C)c(=O)c3cnccc23)c(OC)cc1CN1CCC(OC2CCN(C(=O)c3ccc(Cl)c(N4CCC(=O)NC4=O)c3)CC2)CC1 [Compound A30, 1-(2-Chloro-5-(4-((1-(2,5-dimethoxy-4-(2-methyl-1-oxo-1,2-dihydro-2,7-naphthyridin-4-yl)benzyl)piperidin-4-yl)oxy)piperidine-1-carbonyl)phenyl)dihydropyrimidine-2,4(1H,3H)-dione] | 13.99% | 0.016 µM
9 | COc1ccc(C(=O)N2CCC(OC3CCN(C(=O)/C=C/c4c(OC)cc(-c5cn(C)c(=O)c6cnccc56)cc4OC)CC3)CC2)cc1N1CCC(=O)NC1=O [Compound A31, (E)-1-(5-(4-((1-(3-(2,6-dimethoxy-4-(2-methyl-1-oxo-1,2-dihydro-2,7-naphthyridin-4-yl)phenyl)acryloyl)piperidin-4-yl)oxy)piperidine-1-carbonyl)-2-methoxyphenyl)dihydropyrimidine-2,4(1H,3H)-dione] | 15.11% | 0.01 µM
10 | COc1ccc(C(=O)N2CCC(OC3CCN(CCc4c(OC)cc(-c5cn(C)c(=O)c6cnccc56)cc4OC)CC3)CC2)cc1N1CCC(=O)NC1=O [Compound A32, 1-(5-(4-((1-(2,6-Dimethoxy-4-(2-methyl-1-oxo-1,2-dihydro-2,7-naphthyridin-4-yl)phenethyl)piperidin-4-yl)oxy)piperidine-1-carbonyl)-2-methoxyphenyl)dihydropyrimidine-2,4(1H,3H)-dione] | 16.20% | 0.006 µM
11 | COc1cc(-c2cn(C)c(=O)c3cnccc23)cc(OC)c1CN1CCC(OC2CCN(C(=O)c3ccc(C)c(N4CCC(=O)NC4=O)c3)CC2)CC1 [Compound A33, 1-(5-(4-((1-(2,6-Dimethoxy-4-(2-methyl-1-oxo-1,2-dihydro-2,7-naphthyridin-4-yl)benzyl)piperidin-4-yl)oxy)piperidine-1-carbonyl)-2-methylphenyl)dihydropyrimidine-2,4(1H,3H)-dione] | 13.30% | 0.034 µM
12 | COc1ccc(C(=O)N2CCC(OCCN3CCN(Cc4c(OC)cc(-c5cn(C)c(=O)c6cnccc56)cc4OC)CC3)CC2)cc1N1CCC(=O)NC1=O [Compound A34, 1-(5-(4-(2-(4-(2,6-Dimethoxy-4-(2-methyl-1-oxo-1,2-dihydro-2,7-naphthyridin-4-yl)benzyl)piperazin-1-yl)ethoxy)piperidine-1-carbonyl)-2-methoxyphenyl)dihydropyrimidine-2,4(1H,3H)-dione] | 13.80% | 0.037 µM
